According to BindingDB's records for doi:10.1021/jm950876u (Universit&#224, 1996):

Molecular target: Xanthine dehydrogenase/oxidase (Homo sapiens, UniProt P47989)
Assay: Inhibitory activity against Xanthine Oxidase

Chain of Xanthine dehydrogenase/oxidase (P47989 whole entry): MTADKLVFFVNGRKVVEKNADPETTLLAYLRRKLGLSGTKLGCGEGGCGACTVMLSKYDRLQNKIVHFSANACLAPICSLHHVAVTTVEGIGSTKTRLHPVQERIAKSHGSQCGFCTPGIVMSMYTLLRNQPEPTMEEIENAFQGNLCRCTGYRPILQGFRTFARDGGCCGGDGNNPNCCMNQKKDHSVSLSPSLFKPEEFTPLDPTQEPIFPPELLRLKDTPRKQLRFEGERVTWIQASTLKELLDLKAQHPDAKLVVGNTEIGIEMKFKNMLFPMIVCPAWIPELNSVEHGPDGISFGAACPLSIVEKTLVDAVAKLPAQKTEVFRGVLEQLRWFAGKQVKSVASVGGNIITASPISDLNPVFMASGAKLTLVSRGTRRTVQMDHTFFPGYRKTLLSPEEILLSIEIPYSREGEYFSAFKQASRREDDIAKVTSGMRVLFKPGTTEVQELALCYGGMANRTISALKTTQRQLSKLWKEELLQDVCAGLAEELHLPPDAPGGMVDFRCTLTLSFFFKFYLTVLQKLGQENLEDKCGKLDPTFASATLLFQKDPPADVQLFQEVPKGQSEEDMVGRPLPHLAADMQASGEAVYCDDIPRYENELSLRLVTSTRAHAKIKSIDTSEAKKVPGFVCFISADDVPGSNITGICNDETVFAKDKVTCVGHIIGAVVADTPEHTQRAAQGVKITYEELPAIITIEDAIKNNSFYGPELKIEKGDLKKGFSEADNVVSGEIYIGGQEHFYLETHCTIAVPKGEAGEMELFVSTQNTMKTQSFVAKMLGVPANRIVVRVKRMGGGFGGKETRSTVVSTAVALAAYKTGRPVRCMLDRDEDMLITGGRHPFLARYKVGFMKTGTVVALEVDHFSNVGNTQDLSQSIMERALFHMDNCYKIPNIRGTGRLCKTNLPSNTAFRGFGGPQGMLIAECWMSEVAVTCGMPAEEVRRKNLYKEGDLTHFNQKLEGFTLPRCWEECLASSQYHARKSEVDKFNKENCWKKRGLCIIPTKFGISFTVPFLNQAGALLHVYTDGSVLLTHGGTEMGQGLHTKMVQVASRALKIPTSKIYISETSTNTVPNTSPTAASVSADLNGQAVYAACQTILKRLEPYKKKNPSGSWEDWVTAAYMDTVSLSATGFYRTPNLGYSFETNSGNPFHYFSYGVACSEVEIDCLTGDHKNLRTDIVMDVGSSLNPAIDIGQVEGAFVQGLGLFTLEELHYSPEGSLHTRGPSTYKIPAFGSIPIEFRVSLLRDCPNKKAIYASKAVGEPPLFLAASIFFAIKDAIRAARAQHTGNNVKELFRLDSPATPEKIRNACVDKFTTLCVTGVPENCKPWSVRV

| Ki | SMILES |
| --- | --- |
| > 100 µM | CC1CSc2nc3[nH]c(=O)[nH]c3c(=O)n2C1 (configuration not stated) [2-Hydroxy-7-methyl-7,8-dihydro-3H,6H-5-thia-1,3,4,8a-tetraaza-cyclopenta[b]naphthalen-9-one] |
| > 100 µM | CC1CSc2nc3[nH]c(=S)[nH]c3c(=O)n2C1 (configuration not stated) [2-Mercapto-7-methyl-7,8-dihydro-3H,6H-5-thia-1,3,4,8a-tetraaza-cyclopenta[b]naphthalen-9-one] |
